Data taken from US20250230193A1, “CYCLIC COMPOUND HAVING SELECTIVE KRAS INHIBITORY EFFECT ON HRAS AND NRAS” (CHUGAI SEIYAKU KABUSHIKI KAISHA, priority 2022, published 2025).
Where a SMILES comes first, the peptide text is derived from it. Bridges are numbered along the chain shown (N, C = ends). [ ]: non-standard residue; d: D form. The star is where a group is joined. hPhe(3,5-F2-4-CF3) = N[C@@H](CCc1cc(F)c(C(F)(F)F)c(F)c1)C(=O)O; hPhe(3-Cl-4-CF3) = N[C@@H](CCc1ccc(C(F)(F)F)c(Cl)c1)C(=O)O; NPrPhe(4-CF3) = CCCN[C@@H](Cc1ccc(C(F)(F)F)cc1)C(=O)O; NMeGly(cPent) = CN[C@H](C(=O)O)C1CCCC1; Ac4c(3,3-F2) = NC1(C(=O)O)CC(F)(F)C1; NMeD = CN[C@@H](CC(=O)O)C(=O)O; NMeL = CN[C@@H](CC(C)C)C(=O)O; Morpholide = C1CN(*)CCO1; Ac5c = NC1(C(=O)O)CCCC1; Aze = O=C(O)[C@@H]1CCN1; Sar = CNCC(=O)O

Tests used:
[1] = biological target: GDP-bound NRAS wild-type protein (Homo sapiens, UniProt P01111); test: Binding to NRAS by surface plasmon resonance (SPR), Single Cycle Kinetics; details: SPR
[2] = biological target: GDP-bound HRAS wild-type protein (Homo sapiens, UniProt P01112); test: Binding to HRAS by surface plasmon resonance (SPR), Single Cycle Kinetics; details: SPR
[3] = GDP-bound NRAS wild-type vs GDP-bound KRAS wild-type
[4] = GDP-bound HRAS wild-type vs GDP-bound KRAS wild-type

GDP-bound NRAS wild-type protein, sequence (P01111 whole entry): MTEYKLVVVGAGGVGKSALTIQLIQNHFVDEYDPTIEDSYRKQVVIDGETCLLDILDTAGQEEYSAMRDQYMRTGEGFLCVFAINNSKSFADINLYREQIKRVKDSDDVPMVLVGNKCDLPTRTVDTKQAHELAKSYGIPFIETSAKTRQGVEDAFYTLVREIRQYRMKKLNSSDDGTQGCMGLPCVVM
GDP-bound HRAS wild-type protein, sequence (P01112 whole entry): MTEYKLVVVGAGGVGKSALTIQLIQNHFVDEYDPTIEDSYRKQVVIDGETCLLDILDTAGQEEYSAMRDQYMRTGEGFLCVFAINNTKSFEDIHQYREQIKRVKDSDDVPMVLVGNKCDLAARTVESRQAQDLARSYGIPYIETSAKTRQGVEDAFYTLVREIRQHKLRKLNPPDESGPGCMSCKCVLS

SMILES: CC[C@@H]1C[C@H]2C(=O)NC3(CCCC3)C(=O)N(C)[C@@H](C3CCCC3)C(=O)N(C)[C@H](C(=O)N(C)CC)CC(=O)N(C)[C@@H](C)C(=O)N[C@@H]([C@@H](C)CC)C(=O)N(C)CC(=O)N(C)[C@H]3C/C=C\CCN(C3=O)[C@@H](Cc3ccc(C(F)(F)F)cc3)C(=O)N(C)CC(=O)N[C@@H](CCc3cc(F)c(C(F)(F)F)c(F)c3)C(=O)N2C1 [PP2271]
- NRAS/KRAS (ratio of KD value with respect to NRAS to KD value with respect to KRAS) [1, 3]: A (a compound having 10 or more and less than 20 is denoted as A)
- HRAS/KRAS (ratio of KD value with respect to HRAS to KD value with respect to KRAS) [2, 4]: A (a compound having 10 or more and less than 20 is denoted as A)

SMILES: CCC[C@H]1C(=O)N[C@@H]([C@@H](C)CC)C(=O)N(C)CC(=O)N(C)[C@H]2C/C=C\CCN(C2=O)[C@@H](Cc2ccc(C(F)(F)F)cc2)C(=O)N(C)CC(=O)N[C@@H](CCc2cc(F)c(C(F)(F)F)c(F)c2)C(=O)N2C[C@H](OCC)C[C@H]2C(=O)N(C)C2(CCC2)C(=O)N(C)[C@@H](C2CCCC2)C(=O)N(C)[C@H](C(=O)N2CCCCC2)CC(=O)N1C [PP3118, (2S,8S,12R,14S,20S,23S,27S,30S,36S,38Z)-20-cyclopentyl-8-[2-[3,5-difluoro-4-(trifluoromethyl)phenyl]ethyl]-12-ethoxy-4,16,19,22,26,32,35-heptamethyl-30-[(1S)-1-methylpropyl]-23-(piperidine-1-carbonyl)-27-propyl-2-[[4-(trifluoromethyl)phenyl]methyl]spiro[1,4,7,10,16,19,22,26,29,32,35-undecazatricyclo[34.5.1.0^10,14]dotetracont-38-ene-17,1′-cyclobutane]-3,6,9,15,18,21,25,28,31,34,42-undecone]
- NRAS/KRAS (ratio of KD value with respect to GDP-bound NRAS wild-type protein to KD value with respect to KRAS) ([1]; KD ratio NRAS/KRAS, GDP-bound wild-type proteins): A (a compound having 10 or more and less than 20 is denoted as A)
- HRAS/KRAS (ratio of KD value with respect to GDP-bound HRAS wild-type protein to KD value with respect to KRAS) ([2]; KD ratio HRAS/KRAS, GDP-bound wild-type proteins): B (a compound having 3 or more and less than 10 is denoted as B)

SMILES: CCCN1C(=O)CN(C)C(=O)[C@@H]2CCN2C(=O)[C@H]([C@@H](C)CC)NC(=O)[C@H](CC(C)C)N(C)C(=O)C[C@@H](C(=O)N2CCOCC2)N(C)C(=O)[C@H](C2CCCC2)N(C)C(=O)C2(CCCC2)NC(=O)[C@@H]2CCCN2C(=O)[C@H](CCc2ccc(C(F)(F)F)c(Cl)c2)NC(=O)CN(C)C(=O)[C@@H]1Cc1ccc(C(F)(F)F)cc1 [PP0158] ([NMeL]I[Aze][Sar][NPrPhe(4-CF3)][Sar][hPhe(3-Cl-4-CF3)]P[Ac5c][NMeGly(cPent)][NMeD]-Morpholide; lactam N-11)
- NRAS/KRAS (ratio of KD for GDP-bound NRAS wild-type to KD for KRAS) ([1]; KD ratio NRAS/KRAS): A (a compound having 10 or more and less than 20 is denoted as A)
- HRAS/KRAS (ratio of KD for GDP-bound HRAS wild-type to KD for KRAS) ([2]; KD ratio HRAS/KRAS): B (a compound having 3 or more and less than 10 is denoted as B)

SMILES: CCO[C@@H]1C[C@H]2C(=O)NC3(CC(C)(C)C3)C(=O)N(C)[C@@H](C3CCCC3)C(=O)N(C)[C@H](C(=O)N(C)C)CC(=O)N(C)[C@@H](CC3CC3)C(=O)N[C@@H]([C@@H](C)CC)C(=O)N(C)CC(=O)N(C)[C@H]3C/C=C\CCN(C3=O)[C@@H](Cc3ccc(C)cc3)C(=O)N(C)CC(=O)N[C@@H](CCc3ccc(C(F)(F)F)c(OC)c3)C(=O)N2C1 [PP1903]
- NRAS/KRAS (ratio of KD value for NRAS to KD value for KRAS) [1, 3]: A (a compound having 10 or more and less than 20 is denoted as A)
- HRAS/KRAS (ratio of KD value for HRAS to KD value for KRAS) [2, 4]: B (a compound having 3 or more and less than 10 is denoted as B)

SMILES: CCO[C@@H]1C[C@H]2C(=O)NC3(CC(F)(F)C3)C(=O)N(C)[C@@H](C(CC)CC)C(=O)N(C)[C@H](CC)CC(=O)N(C)[C@@H](CC3CC3)C(=O)N[C@@H]([C@@H](C)CC)C(=O)N(C)CC(=O)N(C)[C@H]3C/C=C\CCN(C3=O)[C@@H](Cc3ccc(C(F)(F)F)cc3)C(=O)N(C)CC(=O)N[C@@H](CCc3cc(F)c(C(F)(F)F)c(F)c3)C(=O)N2C1 [PP1632]
- NRAS/KRAS (ratio of KD value for NRAS to KD value for KRAS) [1, 3]: A (a compound having 10 or more and less than 20 is denoted as A)
- HRAS/KRAS (ratio of KD value for HRAS to KD value for KRAS) [2, 4]: A (a compound having 10 or more and less than 20 is denoted as A)

SMILES: CCCN1C(=O)CN(C)C(=O)CN(C)C(=O)[C@H]([C@@H](C)CC)NC(=O)[C@H](CC(C)C)N(C)C(=O)C[C@@H](C(=O)N(C)C)N(C)C(=O)[C@H](C2CCCC2)N(C)C(=O)C2(CC(F)(F)C2)NC(=O)[C@@H]2CCCN2C(=O)[C@H](CCc2cc(F)c(C(F)(F)F)c(F)c2)NC(=O)CN(C)C(=O)[C@@H]1Cc1ccc(C(F)(F)F)cc1 [PP0745] ([NMeL]I[Sar][Sar][NPrPhe(4-CF3)][Sar][hPhe(3,5-F2-4-CF3)]P[Ac4c(3,3-F2)][NMeGly(cPent)][NMeD]-NMe2; lactam N-11)
- NRAS/KRAS (ratio of KD value with respect to GDP-bound NRAS wild-type protein to KD value with respect to KRAS) ([1]; KD ratio NRAS/KRAS): B (a compound having 3 or more and less than 10 is denoted as B)
- HRAS/KRAS (ratio of KD value with respect to GDP-bound HRAS wild-type protein to KD value with respect to KRAS) ([2]; KD ratio HRAS/KRAS): C (A compound having a KD ratio of 0.1 or more and less than 3 is denoted as C)

SMILES: CCC[C@H]1C(=O)N[C@@H]([C@@H](C)CC)C(=O)N(C)CC(=O)N(C)[C@H]2C/C=C\CCN(C2=O)[C@@H](Cc2ccc(C)cc2)C(=O)N(C)CC(=O)N[C@@H](CCc2cc(F)c(C(F)(F)F)c(F)c2)C(=O)N2C[C@H](C)C[C@H]2C(=O)NC2(CCC2)C(=O)N(C)[C@@H](C2CCCC2)C(=O)N(C)[C@H](C(=O)N(C)CC)CC(=O)N1C [PP1862]
- NRAS/KRAS (ratio of KD value for NRAS to KD value for KRAS) [1, 3]: A (a compound having 10 or more and less than 20 is denoted as A)
- HRAS/KRAS (ratio of KD value for HRAS to KD value for KRAS) [2, 4]: A (a compound having 10 or more and less than 20 is denoted as A)
